In US20260297085A1, “1 H-PYRROLO[2,3-B]PYRIDIN-4-YL]-2-OXOPYRROLIDINE-3-CARBONITRILE DERIVATIVES AS TYROSINE KINASE 2 (TYK2) INHIBITORS FOR THE TREATMENT OF INFLAMMATORY DISEASES” (BIOGEN MA INC., priority 2023, published 2026):
Where a name gives a salt, the structure may show the parent alone.

Columns and labels:
[1] = molecular target: T1, human JAK1 kinase domain (JH1) (Homo sapiens, UniProt P23458); assay: JH1 biochemical assay for JAK1 (ADP-Glo kinase assay, recombinant JH1 catalytic domain, JAK3-342 peptide, 35 μM ATP)
T1 construct: recombinantly generated catalytic kinase (also known as JH1) domain of human JAK1, JAK2, JAK3 and TYK2
Protocol: (§1) Compounds of the disclosure were assessed for their ability to inhibit TYK2, JAK1, JAK2, and JAK3 activity. The inhibitory properties of the compounds of the disclosure described herein can be evidenced by testing in any one of the following protocols.
(§2) The kinase activity of recombinantly generated catalytic kinase (also known as JH1) domain of human JAK1, JAK2, JAK3 and TYK2 were evaluated in a plate-based assay using the ADP-Glo™ Kinase Assay platform. Specifically, 4 nM of recombinant JAK1 kinase domain is used to phosphorylate 50 μM of a JAK3-342 (sequence ALVDGYFRLTT) peptide in the presence of 35 μM ATP. Catalytic activities of recombinant JAK2, JAK3 and TYK2 kinase domain (0.2, 0.3 and 2 nM, respectively) are evaluated by the phosphorylation status of the JAK3-974 (50 μM; sequence LPLDKDYYVVR) peptide with the addition of ATP (15, 4 and 10 μM, respectively). The reactions proceed for 100 minutes and the catalytic activity is quantified by first depleting the unused ATP, converting the hydrolyzed ADP into ATP to generate luminescence in a luciferase reaction; which is the basis of the ADP-Glo platform. Compounds are tested at either 10 μM or 1 μM top concentration, 11 points of 3-fold dilution. The data is normalized and the percent activity versus log concentration of compound is fitted with a 4-parameter logistic model to generate a curve and an IC50 value.

[2] = molecular target: T2, human JAK2 kinase domain (JH1) (Homo sapiens, UniProt O60674); assay: JH1 biochemical assay for JAK2 (ADP-Glo kinase assay, recombinant JH1 catalytic domain, JAK3-974 peptide, 15 μM ATP)
T2 construct: recombinantly generated catalytic kinase (also known as JH1) domain of human JAK1, JAK2, JAK3 and TYK2
Protocol: as §1, §2

[3] = molecular target: T3, human JAK3 kinase domain (JH1) (Homo sapiens, UniProt P52333); assay: JH1 biochemical assay for JAK3 (ADP-Glo kinase assay, recombinant JH1 catalytic domain, JAK3-974 peptide, 4 μM ATP)
T3 construct: recombinantly generated catalytic kinase (also known as JH1) domain of human JAK1, JAK2, JAK3 and TYK2
Protocol: as §1, §2

[4] = molecular target: T4, human TYK2 kinase domain (JH1) (Homo sapiens, UniProt P29597); assay: JH1 biochemical assay for TYK2 (ADP-Glo kinase assay, recombinant JH1 catalytic domain, JAK3-974 peptide, 10 μM ATP)
T4 construct: recombinantly generated catalytic kinase (also known as JH1) domain of human JAK1, JAK2, JAK3 and TYK2
T4 sequence (P29597 897-1176 limits assumed): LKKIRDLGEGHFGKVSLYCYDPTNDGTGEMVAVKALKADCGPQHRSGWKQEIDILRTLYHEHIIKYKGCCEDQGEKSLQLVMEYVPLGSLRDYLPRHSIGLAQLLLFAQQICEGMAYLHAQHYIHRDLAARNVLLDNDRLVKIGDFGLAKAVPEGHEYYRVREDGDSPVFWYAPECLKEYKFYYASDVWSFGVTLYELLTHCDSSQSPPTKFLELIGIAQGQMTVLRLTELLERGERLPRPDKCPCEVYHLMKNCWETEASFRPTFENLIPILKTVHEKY
Protocol: as §1, §2

T1 sequence (P23458 875-1153 limits assumed): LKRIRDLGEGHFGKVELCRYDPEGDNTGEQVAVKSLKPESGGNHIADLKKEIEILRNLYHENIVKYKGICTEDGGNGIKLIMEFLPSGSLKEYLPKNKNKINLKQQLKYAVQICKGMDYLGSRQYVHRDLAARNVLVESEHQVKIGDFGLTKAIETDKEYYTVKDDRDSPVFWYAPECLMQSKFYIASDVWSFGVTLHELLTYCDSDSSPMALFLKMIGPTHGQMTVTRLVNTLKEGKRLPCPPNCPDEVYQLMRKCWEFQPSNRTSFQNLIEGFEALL
T2 sequence (O60674 849-1124 limits assumed): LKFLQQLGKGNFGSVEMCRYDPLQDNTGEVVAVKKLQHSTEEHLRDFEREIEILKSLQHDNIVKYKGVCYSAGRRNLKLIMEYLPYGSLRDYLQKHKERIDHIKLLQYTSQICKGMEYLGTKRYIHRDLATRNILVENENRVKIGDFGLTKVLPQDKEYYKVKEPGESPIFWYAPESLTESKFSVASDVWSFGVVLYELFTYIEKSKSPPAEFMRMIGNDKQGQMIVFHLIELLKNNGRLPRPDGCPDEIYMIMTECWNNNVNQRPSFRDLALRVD
T3 sequence (P52333 822-1111 limits assumed): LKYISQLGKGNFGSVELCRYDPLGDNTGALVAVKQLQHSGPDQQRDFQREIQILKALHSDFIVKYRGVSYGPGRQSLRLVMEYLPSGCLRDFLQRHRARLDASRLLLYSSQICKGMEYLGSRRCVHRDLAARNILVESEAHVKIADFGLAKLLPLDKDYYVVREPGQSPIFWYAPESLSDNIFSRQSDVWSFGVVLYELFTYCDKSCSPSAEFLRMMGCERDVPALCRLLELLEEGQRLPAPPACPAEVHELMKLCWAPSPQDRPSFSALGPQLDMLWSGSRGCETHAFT

SMILES	IC50 ([1]; JAK1 JH1, ADP-Glo)	IC50 ([2]; JAK2 JH1, ADP-Glo)	IC50 ([3]; JAK3 JH1, ADP-Glo)	IC50 ([4]; TYK2 JH1, ADP-Glo)	IC50 ([1]; JH1 kinase domain, ADP-Glo)	IC50 ([2]; JH1 kinase domain, ADP-Glo)	IC50 ([3]; JH1 kinase domain, ADP-Glo)	IC50 ([4]; JH1 kinase domain, ADP-Glo)
COc1cncc(-c2cn3ncc(F)c3c(N3C[C@@H](C)[C@@](C#N)(C4CC4)C3=O)n2)c1 [Example 223, (3R,4S)-3-cyclopropyl-1-(3-fluoro-6-(5-methoxypyridin-3-yl)pyrazolo[1,5-a]pyrazin-4-yl)-4-methyl-2-oxopyrrolidine-3-carbonitrile]	1000 to 5000 nM	1000 to 5000 nM	1000 to 5000 nM	50 to 100 nM				
C[C@@H]1CN(c2ccnn3cc(-c4ccc(N(C)C(=O)OC(C)(C)C)nc4)cc23)C(=O)[C@]1(C#N)C1CC1 [Example 95, tert-butyl (5-(4-((3R,4S)-3-cyano-3-cyclopropyl-4-methyl-2-oxopyrrolidin-1-yl)pyrrolo[1,2-b]pyridazin-6-yl)pyridin-2-yl)(methyl)carbamate]					100 to 1000 nM	100 to 1000 nM	100 to 1000 nM	5 to 20 nM
C[C@@H]1CN(c2nc(-c3ncc[nH]3)cn3nccc23)C(=O)[C@]1(C#N)C1CC1 [Example 247, (3R,4S)-1-(6-(1H-imidazol-2-yl)pyrazolo[1,5-a]pyrazin-4-yl)-3-cyclopropyl-4-methyl-2-oxopyrrolidine-3-carbonitrile trifluoroacetate]	> 10000 nM	> 10000 nM	> 10000 nM	> 100 nM				
C[C@@H]1CN(c2ccnn3cc(-c4cncc(C(F)(F)F)c4)cc23)C(=O)[C@]1(C#N)C1CC1 [Example 70, (3R,4S)-3-cyclopropyl-4-methyl-2-oxo-1-(6-(5-(trifluoromethyl)pyridin-3-yl)pyrrolo[1,2-b]pyridazin-4-yl)pyrrolidine-3-carbonitrile]					1000 to 5000 nM	1000 to 5000 nM	1000 to 5000 nM	50 to 100 nM
CC[C@]1(C#N)CCN(c2ccnn3cc(-c4cnn(C)c4)cc23)C1=O (single isomer, unassigned) [Example 42]					1000 to 5000 nM	1000 to 5000 nM	1000 to 5000 nM	50 to 100 nM
C[C@@H]1CN(c2nc(-c3ccnn3C)cn3nccc23)C(=O)[C@]1(C#N)C1CC1 [Example 254, (3R,4S)-3-cyclopropyl-4-methyl-1-(6-(1-methyl-1H-pyrazol-5-yl)pyrazolo[1,5-a]pyrazin-4-yl)-2-oxopyrrolidine-3-carbonitrile trifluoroacetate]	100 to 1000 nM	100 to 1000 nM	100 to 1000 nM	20 to 50 nM				
C[C@@H]1CN(c2ccnn3cc(-c4cccnc4OC(F)F)cc23)C(=O)[C@]1(C#N)C1CC1 [Example 50, (3R,4S)-3-cyclopropyl-1-(6-(2-(difluoromethoxy)pyridin-3-y1)pyrrolo[1,2-b]pyridazin-4-yl)-4-methyl-2-oxopyrrolidine-3-carbonitrile]					1000 to 5000 nM	1000 to 5000 nM	1000 to 5000 nM	50 to 100 nM
C[C@@H]1CN(c2ccnn3cc(-c4cnn(C)c4)cc23)C(=O)[C@@]1(C#N)C1CC1 [Example 21, (3S,4S)-3-cyclopropyl-4-methyl-1-(6-(1-methyl-1H-pyrazol-4-yl)pyrrolo[1,2-b]pyridazin-4-yl)-2-oxopyrrolidine-3-carbonitrile]					> 10000 nM	> 10000 nM	> 10000 nM	> 100 nM
COc1cnc(-c2cc3c(N4C[C@@H](C)[C@@](C#N)(C5CC5)C4=O)ccnn3c2)nc1 [Example 136, (3R,4S)-3-cyclopropyl-1-(6-(5-methoxypyrimidin-2-yl)pyrrolo[1,2-b]pyridazin-4-yl)-4-methyl-2-oxopyrrolidine-3-carbonitrile trifluoroacetate]					1000 to 5000 nM	5000 to 10000 nM	1000 to 5000 nM	50 to 100 nM
Cn1cc(-c2cc3c(N4CC[C@@](CC#N)(C5CC5)C4=O)ccnn3c2)cn1 [Example 27, (R)-2-(3-cyclopropyl-1-(6-(1-methyl-1H-pyrazol-4-yl)pyrrolo[1,2-b]pyridazin-4-yl)-2-oxopyrrolidin-3-yl)acetonitrile]					1000 to 5000 nM	1000 to 5000 nM	1000 to 5000 nM	> 100 nM
